Assays:
Adenosine receptor A1 = biological target: T1, Adenosine receptor A1 (Rattus norvegicus, UniProt P25099)
T1 sequence (P25099 whole entry): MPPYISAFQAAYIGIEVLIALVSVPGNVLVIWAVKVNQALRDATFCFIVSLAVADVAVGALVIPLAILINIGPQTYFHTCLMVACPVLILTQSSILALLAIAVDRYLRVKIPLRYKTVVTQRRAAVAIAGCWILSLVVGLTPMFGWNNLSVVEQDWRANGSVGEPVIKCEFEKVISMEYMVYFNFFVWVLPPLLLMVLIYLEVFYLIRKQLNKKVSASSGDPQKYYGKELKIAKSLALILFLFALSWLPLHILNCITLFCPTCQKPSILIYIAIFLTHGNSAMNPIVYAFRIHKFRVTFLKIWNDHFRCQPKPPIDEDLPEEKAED
Description: Binding affinity towards adenosine A1 receptor on rat whole brain membrane using [3H]N6-cyclohexyladenosine

[1] = biological target: T2, Adenosine A2 receptor (Rattus norvegicus) (UniProt P29276+P30543)
[2] = biological target: T3, Adenosine receptor A1 (Rattus norvegicus) (UniProt P25099); assay: (§1) Reduction of heart rate (A1 response) in isolated rat heart preparation; format: functional, tissue-based
T3 sequence (whole entry): T1 sequence (P25099 whole entry)

Adenosine A2 receptor = Adenosine A2 receptor (Rattus norvegicus, UniProt P29276+P30543)
Description: Binding affinity towards adenosine A2 receptor on rat striatal membrane using [3H]NECA as radioligand

[3] = biological target: T2, Adenosine A2 receptor (Rattus norvegicus); remark: listed apart in the source
Rattus norvegicus [4] = species: Rattus norvegicus; assay: Enhancement of coronary flow (A2 response) in isolated rat heart preparation; format: functional
Rattus norvegicus [5] = species: Rattus norvegicus; assay: as §1; format: functional

Compound	Ki (Adenosine receptor A1) [nM]	EC25 [1] [nM]	EC25 [2] [nM]	Ki (Adenosine A2 receptor) [nM]	EC25 [3] [nM]	EC25 (Rattus norvegicus [4]) [nM]	EC25 (Rattus norvegicus [5]) [nM]
OC[C@H]1OC(n2cnc3c(NCCC4c5ccccc5-c5ccccc54)ncnc32)[C@H](O)[C@@H]1O (stereo partly specified)	320	400	> 3000	4300	–	–	–
OC[C@H]1OC(n2cnc3c(NCCc4cccc5ccccc45)ncnc32)[C@H](O)[C@@H]1O (stereo partly specified)	12.3	30	110	230	–	–	–
Nc1nc(Cl)nc2c1ncn2[C@@H]1O[C@H](CO)[C@@H](O)[C@H]1O	–	–	170	–	13	–	–
C[C@H](Cc1ccccc1)Nc1ncnc2c1ncn2[C@@H]1O[C@H](CO)[C@@H](O)[C@H]1O	–	–	13	–	10	–	–
OC[C@H]1OC(n2cnc3c(NC4c5ccccc5-c5ccccc54)ncnc32)[C@H](O)[C@@H]1O (stereo partly specified)	6200	–	–	42000	–	–	–
OC[C@H]1OC(n2cnc3c(NCC4c5ccccc5CCc5ccccc54)ncnc32)[C@H](O)[C@@H]1O (stereo partly specified)	160	–	–	390	–	–	–
OC[C@H]1O[C@@H](n2cnc3c(NCc4ccccc4)ncnc32)[C@H](O)[C@@H]1O	–	–	2300	–	35	–	–
Nc1nc(Nc2ccccc2)nc2c1ncn2[C@@H]1O[C@H](CO)[C@@H](O)[C@H]1O	–	–	7000	–	3	–	–
OC[C@H]1O[C@@H](n2cnc3c(NC4CCCC4)ncnc32)[C@H](O)[C@@H]1O	–	–	3	–	> 100	–	–
CCNC(=O)[C@H]1O[C@@H](n2cnc3c(N)ncnc32)[C@H](O)[C@@H]1O [NECA]	–	–	–	–	–	1.1	21
OC[C@H]1OC(n2cnc3c(NCc4c5ccccc5cc5ccccc45)ncnc32)[C@H](O)[C@@H]1O (stereo partly specified)	9000	–	–	29000	–	–	–
OC[C@H]1O[C@@H](n2cnc3c(NCC(c4ccccc4)c4ccccc4)ncnc32)[C@H](O)[C@@H]1O	–	–	90	–	10	–	–
OC[C@H]1O[C@@H](n2cnc3c(NCCc4ccccc4)ncnc32)[C@H](O)[C@@H]1O	–	–	300	160	70	–	–
OC[C@H]1O[C@@H](n2cnc3c(NCc4cccc5ccccc45)ncnc32)[C@H](O)[C@@H]1O	24	1.2	400	9.1	–	–	–
OC[C@H]1O[C@@H](n2cnc3c(NCC4c5ccccc5-c5ccccc54)ncnc32)[C@H](O)[C@@H]1O	–	2	100	–	–	–	–
OC[C@H]1OC(n2cnc3c(NCC4c5ccccc5Oc5ccccc54)ncnc32)[C@H](O)[C@@H]1O (stereo partly specified)	62	2	1200	48	–	–	–
